According to patent US6140330A, “Thiazole derivative” (Otsuka Pharmaceutical Company, Limited, priority 1996, dated 2000):
Each block holds one compound with its values, some of them ahead of it.

Tests used:
[1] = Rat Kidney Ischemic Re-perfusion Model; assay type: in vivo; settings: for amount of creatine in the blood / amount of urea nitrogen in the blood: in mg/dL (unit assumed)
Protocol: (4) Rat Kidney Ischemic Re-perfusion Model
The right kidney of a SD male rat was taken out, and the left kidney artery was clumped, and then, re-perfused to give a kidney ischemic re-perfusion model. The effect of the compounds of Examples 71, 89 and 100 on the kidney ischemic re-perfusion model was estimated.
The compound of Example 71 was administered intravenously to the rat at a dose of 3 mg/kg 5 minutes before the ischemic. Twenty-four hours later, the blood was collected from the tail vein, and the amounts of creatine and urea nitrogen were determined. The amount of creatine in the blood was 2.19±0.21 (mean±s.e.) in the control group; 1.4±0.11 (mean±s.e.) in the group treated with the compound of Example 71, and the amount of urea nitrogen in the blood was 78.8±5.6 (mean s.e.) in the control group, and 54.1±5.0 (mean±s.e.) in the group treated with the compound of Example 71.
The compound of Example 89 was administered intravenously to the rat at a dose of 3 mg/kg 5 minutes before the ischemic and the re-perfusion. Forty-eight hours later, the blood was collected from the tail vein, and the amounts of creatine and urea nitrogen were determined. The amount of creatine in the blood was 4.31±0.53 (mean±s.e.) in the control group; 2.34±0.46 (mean±s.e.) in the group treated with the compound of Example 89, and the amount of urea nitrogen in the blood was 155.1±15.4 (mean±s.e.) in the control group, and 99.1±16.0 (mean±s.e.) in the group treated with the compound of Example 89.
The compound of Example 100 was administered orally to the rat at a dose of 30 mg/kg one hour before the ischemic. Forty-eight hours later, the blood was collected from the tail vein, and the amounts of creatine and urea nitrogen were determined. The amount of creatine in the blood was 2.48±0.59 (mean±s.e.) in the control group; 1.53±0.20 (mean±s.e.) in the group treated with the compound of Example 100, and the amount of urea nitrogen in the blood was 91.3±20.1 (mean±s.e.) in the control group, and 63.1±10.3 (mean±s.e.) in the group treated with the compound of Example 100.

protein kinase C (PKC) = experiment: Protein Kinase C (PKC) Inhibitory Activity; assay type: biochemical; settings: rat brain PKC, H1 histone substrate, 10 μM [γ-32P]ATP, 30° C., 30 minutes
Protocol: (1) Protein Kinase C (PKC) Inhibitory Activity
Method for determining PKC activity:
The purification of PKC using rat's brain soluble fractions was carried out by a method of Kikkawa et al. (cf. Ushio Kikkawa, Yoshimi Takai, Ryoji Minakuchi, Sinichi Inohara and Yasutomi Nishizuka: The Journal of Biological Chemistry, vol. 257, No. 22, pp. 13341-13348 (1982)). PKC activity was determined by the transfer of radio activity from the [γ-^32 P] adenosine triphosphate (ATP) to H1 histone derived from calf thymus in the presence of 20 mM Tris-HCl buffer (pH 7.5), H1 histone derived from calf thymus (200 μg/ml), 10 μM [γ-^32P]ATP, 5 mM magnesium acetate, 8 μg/ml phosphatidyl serine, 2 μg/ml diacylglycerol and 0.3 mM Ca^2+. The test compound was dissolved in dimethylformamide, and the test compound solution was added to the assay system so that the final concentration thereof was adjusted to 0.8%. The reaction mixture was incubated at 30° C. for 30 minutes, and the reaction was quenched with 25% trichloroacetic acid. The acid-insoluble protein was collected on a nitrocellulose membrane by suction filtration. The radio activity of ^32 P was determined by scintillation counter. The PKC inhibitory activity of the test compounds was expressed by IC50, which is a concentration of the test compound to be required to reduce the PKC activity by 50%.

[2] = Phorbol Ester (TPA)-induced Mouse Auricle Edema, Acanthosis Model; assay type: in vivo; settings: mouse (ICR); for increase in the thickness of auricle: after 24 hours, control 215±40 μm, mean±s.e.
Protocol: (5) Phorbol Ester (TPA)-induced Mouse Auricle Edema, Acanthosis Model
A 200 μg/ml phorbol ester (TPA) (10 μl) was applied to the one side to the ear of a female mouse (ICR). Twenty-four hours later, the thickness of the auricle of the mouse was determined with using a dialthickness gage, and the increase in the thickness of auricle was calculated. A test compound was dissolved in acetone, and the solution of a test compound was applied to the both sides of the ear 30 minutes before the application of TPA.
The compound of Example 88 was applied to the ear at a dose of 20 μl of 0.3% or 1% solution. The increase in the thickness of auricle in the control group is 215±40 μm (mean±s.e.) after 24 hours, while 87±53 μm (mean±s.e.) in the group treated with the compound of Example 88 in 0.3%, and 67±23 μm (mean±s.e.) in the group treated with the compound of Example 88 in 1%.

[3] = Mouse Atopic Dermatitis Model (TNCB-induced increase in auricle thickness); assay type: in vivo; settings: mice (Balb/c), once a day for two weeks
Protocol: (6) Mouse Atopic Dermatitis Model:
1% […] (TNCB), (10 μl) was applied to each side of the ear of female mice (Balb/c), once every two days for 24 days. Twenty-four days later, the mice were grouped, and the auricle thickness of the mouse was determined by using a dial thickness gage, and the increase in the thickness of auricle was calculated. The compounds of Examples 88 and 89 were dissolved in acetone in a concentration of 1%. The compound of Example 182 was dissolved in a mixture of acetone:methanol in a concentration of 0.75%. Twenty-four days after the beginning of the experiment, the solution of a test compound was applied to each side of the ear 30 minutes before and after the application of TNCB, once a day for two weeks.

anti-DNA antibody = experiment: Mouse cGVHD (chronic graft-versus-host disease model), anti-DNA antibody in blood by ELISA; assay type: in vivo; settings: mice; for amount of anti-DNA antibody in the blood: mean±s.e.
Protocol: (3) Mouse cGVHD (chromic Graft-versus-host disease model)
Female mice (DBA/2NCrj) were subjected to an operation of cervical vertebra dislocation, and the spleen was taken out to give the spleen cells preparation. The preparation were adjusted to 37.5×10^7 cells/ml, and administered to the BDF1 female mice on the tail vein at a dose of 200 μl per a mouse. Two weeks later, the blood was collected in the absence of heparin, and anti-DNA antibody therein was determined by ELISA.
The compound of Example 182 was administered orally to the mice at a dose of 30 to 50 mg/kg once a day for two weeks, and the effect of the test compound on cGVHD was determined.
The amount of anti-DNA antibody in the blood was determined with OD405. The amounts of anti-DNA antibody were 0.348±0.111 (mean±s.e.) in the control group, 0.255±0.062 (mean±s.e.) in the group treated with the compound of Example 182 at a dose of 30 mg/kg, and 0.094±0.026 (mean±s.e.) in the group treated with the compound of Example 182 at a dose of 50 mg/kg.
Further, the compound of Example 100 was also administered orally to the mice at 30 mg/kg once a day for two weeks, and the effect of the compound on cGVHD was also determined.
The amount of anti-DNA antibody in the blood was determined with OD405. The amounts of anti-DNA antibody were 0.258±0.084 (mean±s.e.) in the control group, and 0.177±0.061 (mean±s.e.) in the group treated with the compound of Example 100 at a dose of 30 mg/kg.

Mouse Collagen Arthritis = assay type: in vivo; settings: orally once a day
Protocol: (2) Mouse Collagen Arthritis
Bovine II-type collagen (provided by Collagen Gijyutsu Kensyukai) (0.1%) was emulsified with Complete Fleund's adjuvant (CFA) (50%) (manufactured by DIFCO, Ltd.), and the emulsion thus obtained was injected intracutaneously to mice at the tail (primary sensitization). Three weeks later, bovine II-type collagen (0.1%) was injected intraperitoneally again to the mice (secondary sensitization). Three weeks later, the swelling of limbs of the mice was observed, and evaluated by four-degree as 0 to 3 each limb. The degree (0 to 3) each limb was added, and the results were used a score of the arthritis. That is, the maximum degree is 12 (degree 3×4 limb). The test compound was administered orally to the mice once a day, which started after two weeks from the primary sensitization.

Compound: CN1CCN(CC2CN(C(=O)/C=C/C(=O)c3ccc(OCC(=O)Nc4nc5ccccc5s4)c(F)c3)CCO2)CC1 (stereo not shown) [Example 71]
amounts of both of creatine and urea nitrogen compared with the control group ([1]; i.v. 3 mg/kg 5 minutes before the ischemic, 24 hours later): significantly reduced | amount of creatine in the blood ([1]; i.v. 3 mg/kg 5 minutes before the ischemic, 24 hours later, control 2.19±0.21, mean±s.e.): 1.4±0.11 | amount of urea nitrogen in the blood ([1]; i.v. 3 mg/kg 5 minutes before the ischemic, 24 hours later, control 78.8±5.6, mean±s.e.): 54.1±5.0 | IC50 (protein kinase C (PKC)): 800 nM

Compound: O=C(COc1ccc(C(=O)/C=C/C(=O)N2CCN(O)CC2)cc1C(F)(F)F)Nc1nc2ccccc2s1 [Example 160]
score of arthritis in comparison with the control mice (Mouse Collagen Arthritis; 50 mg/kg): significantly reduced | IC50 (protein kinase C (PKC)): 600 nM

Compound: Cc1c(OCC(=O)Nc2nc3ccccc3s2)ccc(C(=O)/C=C/C(=O)N2CCC(N3CCCN(C)CC3)CC2)c1C [Example 192]
score of arthritis in comparison with the control mice (Mouse Collagen Arthritis; 50 mg/kg): significantly reduced | IC50 (protein kinase C (PKC)): 800 nM

Compound: Cc1cc(OCC(=O)Nc2nc3ccccc3s2)ccc1C(=O)/C=C/C(=O)N1CCC(N2CCCN(C)CC2)CC1 [Example 197]
score of arthritis in comparison with the control mice (Mouse Collagen Arthritis; 50 mg/kg): significantly reduced | IC50 (protein kinase C (PKC)): 300 nM

Continued by falling IC50 (protein kinase C (PKC)), values first:

IC50 (protein kinase C (PKC)): 300 nM
Compound: COc1cc(C(=O)/C=C/C(=O)N2CCOC(CN3CCN(C)CC3)C2)ccc1OCC(=O)Nc1nc2ccccc2s1 (stereo not shown) [Example 89]
inhibition of the increase in the auricle thickness ([3]; topical 1% in acetone): about 25% | amounts of both of creatine and urea nitrogen compared with the control group ([1]; i.v. 3 mg/kg 5 minutes before the ischemic and the re-perfusion, 48 hours later): significantly reduced | amount of creatine in the blood ([1]; i.v. 3 mg/kg 5 minutes before the ischemic and the re-perfusion, 48 hours later, control 4.31±0.53, mean±s.e.): 2.34±0.46 | amount of urea nitrogen in the blood ([1]; i.v. 3 mg/kg 5 minutes before the ischemic and the re-perfusion, 48 hours later, control 155.1±15.4, mean±s.e.): 99.1±16.0

IC50 (protein kinase C (PKC)): 300 nM
Compound: COc1cc(C(=O)/C=C/C(=O)N2CCC(N3CCCN(C)CC3)CC2)ccc1OCC(=O)Nc1nc2ccccc2s1 [Example 100]
anti-DNA antibody in the blood compared with the control group (anti-DNA antibody; orally 30 mg/kg once a day for two weeks): reduced the anti-DNA antibody in the blood | amount of anti-DNA antibody in the blood (anti-DNA antibody; orally 30 mg/kg once a day for two weeks, control 0.258±0.084): 0.177±0.061 OD405 | amounts of both of creatine and urea nitrogen compared with the control group ([1]; orally 30 mg/kg one hour before the ischemic, 48 hours later): reduced | amount of creatine in the blood ([1]; orally 30 mg/kg one hour before the ischemic, 48 hours later, control 2.48±0.59, mean±s.e.): 1.53±0.20 | amount of urea nitrogen in the blood ([1]; orally 30 mg/kg one hour before the ischemic, 48 hours later, control 91.3±20.1, mean±s.e.): 63.1±10.3

IC50 (protein kinase C (PKC)): 100 nM
Compound: COc1cc(C(=O)/C=C/C(=O)N2CCC(N3CCN(C)CC3)CC2)ccc1OCC(=O)Nc1nc2ccccc2s1 [Example 88]
increase in auricle thickness compared with the control group ([2]; topical 20 μl of 0.3% or 1% solution): significantly reduced | increase in the thickness of auricle ([2]; topical 20 μl of 0.3% solution): 87±53 μm | increase in the thickness of auricle ([2]; topical 20 μl of 1% solution): 67±23 μm

IC50 (protein kinase C (PKC)): 80 nM
Compound: COc1cc(OCC(=O)Nc2nc3ccccc3s2)ccc1C(=O)/C=C/C(=O)N1CCC(N2CCCN(C)CC2)CC1 [Example 182]
inhibition of the increase in the auricle thickness ([3]; topical 0.75% in acetone:methanol): about 25% | amount of anti-DNA antibody in the blood (anti-DNA antibody; orally 30 mg/kg once a day for two weeks, control 0.348±0.111): 0.255±0.062 OD405 | amount of anti-DNA antibody in the blood (anti-DNA antibody; orally 50 mg/kg once a day for two weeks, control 0.348±0.111): 0.094±0.026 OD405 | anti-DNA antibody in the blood compared with the control group (anti-DNA antibody; orally 30 to 50 mg/kg once a day for two weeks): reduced the anti-DNA antibody in the blood dose-dependently | score of arthritis in comparison with the control mice (Mouse Collagen Arthritis; 30 to 50 mg/kg): significantly reduced
